{"source": "PubChem BioAssay AID1259409", "about": "(Chemical Carcinogenesis Research Information System (CCRIS), 2018)", "origin": "cited, not measured here", "test_system": "rodent chemically induced tumor inhibition, incidence and multiplicity", "assay": "CCRIS tumor inhibitor studies"}
{"smiles": "O=C1CCCO1", "values": [{"measurement": "tumour outcome (control, treated, inhibition, significance)", "setting": "Carcinogen: N-METHYL-N'-NITRO-N-NITROSOGUANIDINE, 70-25-7, Dose [Inhibitor]: 0, 200 MG/KG/BW SUSPENSION IN OLIVE OIL 1/2 D BEGINNING POST CARCINOGEN TREATMENT AND CONTINUING FOR DURATION OF STUDY (, Route [Inhibitor]: SUBCUTANEOUS, Species: RAT, Strain/Sex: WISTAR/MALE, Target Tissue: Type of Lesion: STOMACH: ADENOCARCINOMA, Dose [Carcinogen]: 50 UG/ML IN DRINKING WATER FOR 25 WK, Promoter: NONE USED", "result": "16/20 (80%), 13/20 (65%), 19%, not significant"}]}
{"smiles": "COc1cc2c(c(OC)c1OC)-c1c(cc3c(c1OC)OCO3)C[C@H](C)[C@@](C)(O)C2", "values": [{"measurement": "tumour outcome (control, treated, inhibition, significance)", "setting": "Carcinogen: 7,12-DIMETHYLBENZ[A]ANTHRACENE, 57-97-6, Dose [Inhibitor]: 0, 5 UMOL IN 100 µL ACETONE 30 MIN PRIOR EACH PROMOTER DOSE 2/WK FOR 18 WK BEGINNING 7 D POST CARCINOGEN DOSE (STUDY DUR, Route [Inhibitor]: DERMAL, Species: MOUSE, Strain/Sex: ICR/FEMALE, Target Tissue: Type of Lesion: SKIN: PAPILLOMA, Dose [Carcinogen]: 50 UG IN 100 µL ACETONE ONCE, Promoter: 12-O-TETRADECANOYLPHORBOL-13-ACETATE, 16561-29-8", "result": "100%, 50%, 50%, not calculated"}]}
{"smiles": "CC(=O)O[C@@H]1C(=O)O[C@H]2[C@@H]1OC(=O)[C@@H]2OC(C)=O", "values": [{"measurement": "tumour outcome (control, treated, inhibition, significance)", "setting": "Carcinogen: 2-(ACETYLAMINO)FLUORENE, 6292-55-3, Dose [Inhibitor]: 1.2% IN DIET SIMULTANEOUSLY WITH CARCINOGEN (STUDY DURATION: 30 WK), Route [Inhibitor]: ORAL, Species: RAT, Strain/Sex: WISTAR/MALE, Target Tissue: Type of Lesion: URINARY BLADDER: TUMOR, Dose [Carcinogen]: 0.04% IN DIET SUPPLEMENTED WITH 1.4% D,L-TRYPTOPHAN, Promoter: NONE USED", "result": "7/45 (20%), 11/40 (28%), -40%, not calculated"}, {"measurement": "tumour outcome (control, treated, inhibition, significance)", "setting": "Carcinogen: 2-(ACETYLAMINO)FLUORENE, 6292-55-3, Dose [Inhibitor]: 1.2% IN DIET SIMULTANEOUSLY WITH CARCINOGEN (STUDY DURATION: 30 WK), Route [Inhibitor]: ORAL, Species: RAT, Strain/Sex: WISTAR/MALE, Target Tissue: Type of Lesion: URINARY BLADDER: TUMOR, Dose [Carcinogen]: 0.04% IN VITAMIN B6 DEFICIENT DIET, Promoter: NONE USED", "result": "6/33 (18%), 2/38 (5%), 72%, not calculated"}, {"measurement": "tumour outcome (control, treated, inhibition, significance)", "setting": "Carcinogen: 7,12-DIMETHYLBENZ[A]ANTHRACENE, 57-97-6, Dose [Inhibitor]: 400 MG/KG, 30 MIN BEFORE DMBA TREATMENT AND 3 HR AFTER DMBA TREATMENT (STUDY DURATION: 36 WK), Route [Inhibitor]: INTRAGASTRIC, Species: RAT, Strain/Sex: SPRAGUE-DAWLEY/FEMALE, Target Tissue: Type of Lesion: MAMMARY GLAND: TUMOR, Dose [Carcinogen]: 130 MG/KG ONCE, Promoter: NONE USED", "result": "92%, 22%, 76%, not calculated"}]}
{"smiles": "COc1ccc(-c2oc3c(OC)c(OC)c(OC)c(OC)c3c(=O)c2OC)cc1OC", "values": [{"measurement": "tumour outcome (control, treated, inhibition, significance)", "setting": "Carcinogen: 7,12-DIMETHYLBENZ[A]ANTHRACENE [57-97-6], Dose [Inhibitor]: 85 NMOL IN 0.1 ML ACETONE 2X/WK FOR 20 WK 1 HR PRIOR TO EACH PROMOTER DOSE (STUDY DURATION: 21 WK), Route [Inhibitor]: DERMAL, Species: MOUSE, Strain/Sex: ICR/FEMALE, Target Tissue: Type of Lesion: SKIN: PAPILLOMA, Dose [Carcinogen]: 390 NMOL IN 0.1 ML ACETONE ONCE (STUDY DURATION: 21 WK), Promoter: 12-O-TETRADECANOYL-13-ACETATE [16561-29-8]", "result": "100%, 80%, 20%, not calculated"}]}
